Key:
[1] = aqueous solution; converted to a different crystalline form after storage at 35° C.; cited from earlier work
[2] = Rotation stability of the composition, crystalline form assessed by X-ray diffraction; type: physicochemical; conditions: in the aqueous composition; rotated for five days at 35° C. and an additional four weeks at room temperature
Excerpt: The crystalline form may be assessed using X-ray diffraction methods.

[3] = Storage stability of the composition, crystalline form assessed by X-ray diffraction; type: physicochemical; conditions: in the aqueous composition
Excerpt: The stability of the compositions in accordance with the present invention may be defined by standard methods. The anhydrous crystalline form is stable at room temperature. […] The crystalline form may be assessed using X-ray diffraction methods.

[4] = Stability of the API on boiling/stirring in water, tested by X-ray diffraction; type: physicochemical; conditions: boiling in water (with and without Tween 80), two hours stirring at 70 deg in a water bath, then 2 hours at 70 deg on a magnetic stirrer; residue dried at 25° C. under vacuum
Description: The monohydrate peak is clearly visible in the BX 2029 trace, and is absent in the remaining pattern, indicating the presence of anhydrous form in the formulation. Stability of the mometasone furoate anhydrous API was confirmed by boiling in water (with and without the surfactant Tween 80) for two hours whilst stirring at 70 deg in a water bath, followed by 2 hours at 70 deg on a magnetic stirrer. The solution was cooled to room temperature, filtered and the residue containing the API was dried at 25° C. under vacuum. […]

Compound: C[C@@H]1C[C@H]2[C@@H]3CCC4=CC(=O)C=C[C@]4(C)[C@@]3(Cl)[C@@H](O)C[C@]2(C)[C@@]1(OC(=O)c1ccco1)C(=O)CCl [anhydrous mometasone furoate]
- stability of the crystalline form in aqueous composition [1]: unstable
- crystalline form of the anhydrous mometasone furoate in the composition [2]: does not change
- crystalline form of the anhydrous mometasone furoate in the composition ([3]; 25° for a period of three months): does not change
- crystalline form of the anhydrous mometasone furoate in the composition ([3]; 40° C. for a period of three months): does not change
- XRD pattern of the dried sample after treatment in water [4]: concordant with that of mometasone furoate anhydrous

From patent publication US20090325917A1, “Pharmaceutical Compositions and Nasal Spray Incorporating Anhydrous Mometasone Furoate” (CIPLA LIMITED, priority 2006, published 2009)
